Measurements reported in US9622474B2, “N-(substituted)-5-fluoro-4-imino-3-methyl-2-oxo-3,4-dihydropyrimidine-1(2H)-carboxylate derivatives” (Adama Makhteshim Ltd., priority 2012, dated 2017).

Legend:
[1] = system: Mycosphaerella graminicola; Anamorph: Septoria tritici; Bayer Code SEPTTR; assay: Fungicidal activity vs. leaf blotch of wheat (SEPTTR), one-day protectant (1DP); format: in vivo, Septoria tritici on wheat plants (variety Yuma); settings: rating of % disease control vs untreated, inoculated plants
Procedure: (§1) Example A: Evaluation of Fungicidal Activity: Leaf Blotch of Wheat (Mycosphaerella graminicola; Anamorph: Septoria tritici; Bayer Code SEPTTR):
(§2) Wheat plants (variety Yuma) were grown from seed in a greenhouse in 50% mineral soil/50% soil-less Metro mix until the first leaf was fully emerged, with 7-10 seedlings per pot. These plants were inoculated with an aqueous spore suspension of Septoria tritici either prior to or after fungicide treatments. After inoculation the plants were kept in 100% relative humidity (one day in a dark dew chamber followed by two to three days in a lighted dew chamber) to permit spores to germinate and infect the leaf. The plants were then transferred to a greenhouse for disease to develop.
(§3) The following table presents the activity of typical compounds of the present disclosure when evaluated in these experiments. The effectiveness of the test compounds in controlling disease was determined by assessing the severity of disease on treated plants, then converting the severity to percent control based on the level of disease on untreated, inoculated plants.

[2] = system: Mycosphaerella graminicola; Anamorph: Septoria tritici; Bayer Code SEPTTR; assay: Fungicidal activity vs. leaf blotch of wheat (SEPTTR), three-day curative (3DC); format: in vivo, Septoria tritici on wheat plants (variety Yuma); settings: rating of % disease control vs untreated, inoculated plants
Procedure: as §1, §2, §3

Compound | melting point [°C] | SEPTTR 100 PPM 1DP [1] | SEPTTR 100 PPM 3DC [2]
COc1ccc(OC(=O)/N=c2/c(F)cn(C(=O)Oc3ccc(OC)cc3)c(=O)n2C)cc1 [Compound 2] | 161.8 to 165.6 | A (76-100) | A (76-100)
Cc1ccc(OC(=O)n2cc(F)c(=N)n(C)c2=O)cc1 [Compound 3] | 109 to 110.2 | A (76-100) | A (76-100)
Cn1c(=N)c(F)cn(C(=O)Oc2ccccc2)c1=O [Compound 4] | 86.4 to 87.6 | A (76-100) | A (76-100)
COc1ccc(OC(=O)n2cc(F)c(=N)n(C)c2=O)cc1 [Compound 1, 4-methoxyphenyl 5-fluoro-4-imino-3-methyl-2-oxo-3,4-dihydropyrimidine-1(2H)-carboxylate] | 135.6 to 137.1 | A (76-100) | A (76-100)
